# Data reported in patent US9381208B2, “Structure and use of 5′ phosphate oligonucleotides” (Rheinische Friedrich-Wilhelms-Universität, priority 2006, dated 2016).
# Columns and labels:
# [1] = test system: PDC; experiment: IFN-α production in human PDC (ELISA); assay type: cell-based; conditions: 24 hours
# Protocol: Human PBMC were prepared from whole blood donated by young healthy donors by Ficoll-Hypaque density gradient centrifugation (Biochrom, Berlin, Germany). PDC were isolated by MACS using the blood dendritic cell Ag (BCDA)-4 dendritic cell isolation kit from Miltenyi Biotec (Bergisch-Gladbach, Germany). Briefly, PDC were labelled with anti-BDCA-4 Ab coupled to colloidal paramagnetic microbeads and passed through a magnetic separation column twice (LS column, then MS column; Miltenyi Biotec). The purity of isolated PDC (lineage-negative, MHC-II-positive and CD123-positive cells) was above 95%. Before isolation of monocytes, PDC were depleted by MACS (LD column; Miltenyi Biotec) and then monocytes were isolated using the monocyte isolation kit II (Miltenyi Biotec). […] PDC cultures were additionally supplemented with 10 ng/ml IL-3 (R&D Systems). […] Vero (African green monkey kidney) and HEK 293T (human embryonic kidney) cells were maintained in Dulbecco's modified Eagle's medium supplemented with antibiotics and 5% or 10% foetal calf serum, respectively. BSR cells were propagated in Glasgow minimal essential medium supplemented with 10% newborn calf serum, phosphate broth, amino acids and antibiotics.
# Human IFN-α was assessed in cell culture supernatants using the IFN-α module set (Bender MedSystems, Graz, Austria). The murine IP-10 ELISA was from Biosource (Solingen, Germany), the murine IFN-[…] ELISA was from PBL Biomedical Laboratories (Piscataway, USA). All ELISA procedures were performed, according to manufacturers' recommendations.
# [2] = test system: PBMC; experiment: IFN-α in PBMC transfected with chemically synthesized 5′ triphosphate RNA (ELISA); assay type: cell-based, human; conditions: oligonucleotide alone, 0.2 μg, 24 hours
# Protocol: PBMC were transfected with chemically synthesized single-strand oligonucleotides alone or together with their complementary antisense strand (AS) by using Lipofectamine and incubated in the presence or absence of chloroquine (Chl). CpG2331 was used as a positive and chloroquine-sensitive control for IFN-α induction in PBMC.
# The isRNA9.2 (Hornung V et al. (2005) Nat Med 11(3):263-70) generated by in vitro transcription was used a positive control (IVT2-3PRNA). CpG2331 is a TLR9 ligand. PBMC (400,000 cells per well) were transfected with oligonucleotides by using Lipofectamin (0.5 μl, 0.2 μg oligonucleotide). Hybridization of complementary strands was performed by heating 4 μg total RNA in 20 μl of buffer (final 50 mM Tris/HCl pH7.5 100 mM NaCl) up to 70° C. followed by cooling down to 40° C. Chloroquine was used to block TLR-mediated nucleic acid recognition (2.5 μg/ml).
# [3] = test system: human primary monocytes; experiment: IFN-α production in human primary monocytes transfected with RNA (ELISA); assay type: cell-based; conditions: 200 ng RNA transfected, 24 hours, ELISA
substance,measurement,setting,value
5′-pppAGCUUAACCUGUCCUUCAA-3′ [9.2s (IVT)],IFN-α production in PDC,[1],produced IFN-α
same,IFN-α induction in PBMC,[2],induced IFN-α
same,IFN-α production in monocytes,[3],strongly induced IFN-α production
